Measured values: patent publication US5468757A, “6-azaindole thromboxane synthase inhibitors” (Eli Lilly and Company, priority 1994, dated 1995)

Experiments:
thromboxane synthase [1] = target: T1, thromboxane synthase (Homo sapiens, UniProt P24557); assay: Thromboxane Synthase Inhibition (TSI) Assay: serum TXB2 by radioimmunoassay in whole human blood; format: cell-based; settings: for Serum TXB2: mean ± SE, n = 3, vehicle 375
T1 construct: incubated with fresh whole human blood that had been anticoagulated with 0.38% trisodium citrate; from tissue; host or cells: fresh whole human blood (citrated, recalcified)
T1 sequence (P24557 1-533): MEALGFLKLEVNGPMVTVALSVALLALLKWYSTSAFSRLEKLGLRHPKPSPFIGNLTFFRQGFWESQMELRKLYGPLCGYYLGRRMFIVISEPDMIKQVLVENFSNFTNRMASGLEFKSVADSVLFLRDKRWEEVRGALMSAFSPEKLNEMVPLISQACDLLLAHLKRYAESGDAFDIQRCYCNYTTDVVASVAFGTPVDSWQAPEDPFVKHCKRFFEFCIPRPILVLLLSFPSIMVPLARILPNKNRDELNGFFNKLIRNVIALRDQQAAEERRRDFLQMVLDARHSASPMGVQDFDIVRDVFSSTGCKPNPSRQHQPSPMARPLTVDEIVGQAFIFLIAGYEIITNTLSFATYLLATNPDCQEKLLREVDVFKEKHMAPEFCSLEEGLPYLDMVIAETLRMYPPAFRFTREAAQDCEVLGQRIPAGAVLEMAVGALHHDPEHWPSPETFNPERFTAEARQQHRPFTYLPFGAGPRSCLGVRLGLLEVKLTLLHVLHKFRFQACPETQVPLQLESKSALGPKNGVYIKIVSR
Experimental: The ability of the compound of the present invention to be an effective thromboxane synthase inhibitor were evaluated in the following Thromboxane Synthase Inhibition (TSI) Assay with the results shown in Table 1 below:
Method for Thromboxane Synthase Inhibition (TSI) Test:
(§1) The test compound - 6-azaindole-1-hexanoic acid (the compound of Example 1, Part D) was dissolved in dimethylsulfoxide at varying concentrations. The compound solutions and dimethylsulfoxide alone (vehicle) were incubated with fresh whole human blood that had been anticoagulated with 0.38% trisodium citrate, for 30 minutes at 37° C. After 30 minutes, 0.025 ml of 0.5 M calcium chloride solution was added to each 1 ml of blood and further incubated for one hour at 37° C. Serum was prepared by centrifugation of the blood at 2000 x g for 15 minutes in a Beckman table top centrifuge. Serum TXB2 and 6-keto-PGF1a, the stable metabolites of and markers of synthesis of TXA2 and prostacyclin respectively, were measured by radioimmunoassay by commonly used test methods (see, Refs.,1 & 2 below). Results from the radioimmunoassay of TXB2 are shown in Table 1 and indicate the dose-dependent potency of the compound of Example 1, Part D as a thromboxane synthase inhibitor.

[2] = tested on: cyclooxygenase and prostacyclin synthase; assay: Serum 6-keto-PGF1a by radioimmunoassay in whole human blood (specificity of TSI); format: cell-based; settings: for Serum 6-keto-PGF1a: whole human blood, mean ± SE, n = 3, vehicle 1.6 ± 0.2
Experimental: as §1
Data determined from the radioimmunoassay of serum 6-keto-PGF1a (reflecting prostacyclin generation) allowed a determination of the specificity of 6-azaindole-1-hexanoic acid for the inhibition of thromboxane synthase versus cyclooxygenase and prostacyclin synthase as indicated by the serum levels of 6-keto-PGF1a. These values decrease in the presence of a nonspecific inhibitor (i.e., aspirin) but are unchanged or increased by specific TSI. The data in Table 2 documents the expected dose-dependent stimulatory effect of the compound of 6-azaindole-1-hexanoic acid on human serum 6-keto-PGF1a levels and confirm the specific TSI by 6-azaindole-1-hexanoic acid.

thromboxane synthase [3] = assay: Oral activity: serum TXB2 in rats one hour after oral dosing; format: in vivo; settings: blood one hour after dosing, mean ± SE, n = 3, dose 0: 340
Experimental: The oral activity of 6-azaindole-1-hexanoic acid was established by treating rats via the oral route with solutions of the compound and one hour later collecting blood. The blood was allowed to clot in glass tubes for 1 hour at 37° C. Serum was collected after sedimentation of the clot by centrifugation at 2000 x g for 15 minutes in a Beckman table top centrifuge. The levels of TXB2 were measured in the serum by radioimmunoassay. Decreased levels of TXB2 indicate the presence of compound in the blood resulting from oral absorption. The results of these experiments are shown in Table 3 and document the availability of the compound via the oral route of administration and the dose-dependency of the desired inhibitory effect on serum TXB2.

- Serum TXB2 (thromboxane synthase [1]; 0.01 μM compound): 235 ng/mL
- Serum TXB2 (thromboxane synthase [1]; 0.1 μM compound): 109 ng/mL
- Serum TXB2 (thromboxane synthase [1]; 1 μM compound): 18.8 ng/mL
- IC50 (thromboxane synthase [1]; serum TXB2, mean±SE, n=3, read-out: IC50 (concentration required to reduce thromboxane generation to 50% of vehicle)): 23 ± 4.1 nM
- Specificity for inhibition of thromboxane synthase versus cyclooxygenase and prostacyclin synthase ([2]; judged from human serum 6-keto-PGF1a levels): specific TSI
SMILES: O=C(O)CCCCCn1ccc2ccncc21 [Example 1 Part D, 6-azaindole-1-hexanoic acid]
- Serum 6-keto-PGF1a ([2]; 0.01 μM compound): 1.7 ± 0.1 ng/mL
- Serum 6-keto-PGF1a ([2]; 0.1 μM compound): 2.4 ± 0.6 ng/mL
- Serum 6-keto-PGF1a ([2]; 1 μM compound): 2.6 ± 0.7 ng/mL
- Serum TXB2 (thromboxane synthase [3]; 1 mg/kg p.o.): 85.1 ng/mL
- Serum TXB2 (thromboxane synthase [3]; 10 mg/kg p.o.): 18.4 ng/mL
